Consider 24 compounds from patent publication US11579152B2, “Engineered hERG channel proteins, vesicles and methods of identifying small molecule pharmacological agents” (priority 2016, dated 2023).

Read-outs that look alike come from different tables or passages of the source.

The target in series [1] is T1, hERG channel (Homo sapiens, UniProt Q12809, DEL141-380/DEL871-1005). Kind of series: in vitro. Conditions: pH 7.4.
For series [2], the target named is hERG (Homo sapiens, UniProt Q12809). As to conditions: cited from earlier work.
In series [3] the target is T1, hERG channel. Kind of series: biochemical.
The target of series [4] is T1, hERG channel. Kind of series: liposome flux assay (LFA) with engineered hERG channel protein in proteoliposomes. As to conditions: n = 3, mean ± SEM, compared with DMSO controls. (In general: The hERG channel carries a current that helps repolarise heart muscle cells.)
Series [5] has as its target T1, hERG channel.
Setting [6] is: read-out: IC50 patch, electrophysiology-determined values reported in the literature.

In the case of `CC(=O)Nc1ccc(O)cc1` [Acetaminophen], the inhibition – broadly, the drop in the measured response relative to a control, in per cent – at 100 µM in series [1] turned out to be 11.6 ± 7.5%. Still for that read-out and setting: the same measure for `CC(=O)Nc1nnc(S(N)(=O)=O)s1` [Acetazolamide]: 4.4 ± 1.8%.

Consider `CCN(CC)CCCN(c1ccccc1)C1Cc2ccccc2C1` [Aprindine], for which the figures for the half-maximal inhibitory concentration (IC50) in series [2] (setting [6]) and in series [3] were 0.23 µM and 1.88 ± 0.221 µM, respectively. In the case of `NC[C@H](O)c1ccc(O)c(O)c1` [Arterenol], the “Percentage inhibition (%) at 100 μM” value in series [4] stood at 3.7 ± 4.3%.

As to `CN1CCN(CCCCN2C(=O)CN(/N=C/c3ccc(-c4ccc(Cl)cc4)o3)C2=O)CC1` [Azimilide], the IC50 (usually the point on the concentration scale where inhibition reaches its midpoint) in series [2] (setting [6]) was 0.891 µM; in series [3] it was 4.28 ± 1.03 µM. For the compound `CCCCOc1ccc(CC(=O)NO)cc1` [Bufexamac], the inhibition at 100 µM in series [1] came to 1.7 ± 6.8%. As to `C[N+](C)(C)CCOC(N)=O` [Carbachol], the inhibition at 100 µM in series [1] was 2.2 ± 4.2%.

For the compound `CN/C(=N/CCSCc1nc[nH]c1C)NC#N` [Cimetidine], the inhibition at 100 µM in series [1] amounted to 19.9 ± 3.7%. Still for that read-out and setting: with `Clc1cccc(Cl)c1N=C1NCCN1` [Clonidine] the figure was 15.2 ± 5.8%. For `C[N+]1([O-])CCN(C2=Nc3cc(Cl)ccc3Nc3ccccc32)CC1` [Clozapine N-oxide], the “Percentage inhibition (%) at 100 μM” value in series [5] (100 µM) turned out to be 2.1 ± 3.0%.

As to `C=C(CC)C(=O)c1ccc(OCC(=O)O)c(Cl)c1Cl` [Ethacrynic acid], the inhibition at 100 µM in series [1] came out at 8.1 ± 4.4%. On the same count and under the same terms, with `COc1ccccc1OCC(O)CO` (centres unmarked) [Guaifenesin] the figure was -3.5 ± 7.4%; with `CC(C)Cc1ccc(C(C)C(=O)O)cc1` (centres unmarked) [Ibuprofen], 13.1 ± 2.1%.

Regarding `CC(C(O)c1ccc(O)cc1)N1CCC(Cc2ccccc2)CC1` (centres unmarked) [Ifenprodil], the IC50 in series [2] (setting [6]) is 0.41 µM; in series [3] it was 1.59 ± 0.071 µM. As to `CC1Cc2ccccc2N1NC(=O)c1ccc(Cl)c(S(N)(=O)=O)c1` (centres unmarked) [Indapamide], in series [1], the inhibition at 100 µM turned out to be 4.8 ± 6.7%. For `N=C(N)SCCc1ccc(OCc2ccc([N+](=O)[O-])cc2)cc1` [KB-R7943], the half-maximal inhibitory concentration (IC50) in series [2] (setting [6]) is 0.089 µM; in series [5] it was 1.78 ± 0.14 µM. On to `CN(C)c1ccc(O)c2c1C[C@H]1C[C@H]3[C@H](N(C)C)C(O)=C(C(N)=O)C(=O)[C@@]3(O)C(O)=C1C2=O` [Minocycline], for which the inhibition at 100 µM in series [1] was -2.5 ± 11.9%. Still for that read-out and setting: with `CC1(C)O[C@H]1COc1c2ccoc2cc2oc(=O)ccc12` [Oxypeucedanin] the figure was 4.5 ± 19.3%; with `CC1=C(CC(=O)O)c2cc(F)ccc2/C1=C\c1ccc([S+](C)[O-])cc1` (centres unmarked) [Sulindac], 1.1 ± 2.8%. Consider `O=c1n(CCCN2CCN(c3cccc(Cl)c3)CC2)nc2ccccn12` [Trazadone], for which the IC50 in series [2] was 0.69 to 2.9 µM; in series [5], 9.25 ± 0.529 µM. As to `COc1cc(Cc2cnc(N)nc2N)cc(OC)c1OC` [Trimethoprim], the inhibition at 100 µM in series [1] came to 20.6 ± 1.9%. On the same count and under the same terms, the same measure for `CC(=O)CC(c1ccccc1)c1c(O)c2ccccc2oc1=O` (centres unmarked) [Warfarin]: 9.1 ± 5.5%; for `COC[C@H]1OC(=O)c2coc3c2[C@@]1(C)C1=C(C3=O)[C@@H]2CCC(=O)[C@@]2(C)C[C@H]1OC(C)=O` [Wortmannin]: 1.7 ± 5.8%. For the compound Penicillin, the “Percentage inhibition (%) at 100 μM” value in series [4] is reported as −0.4 ± 9.5%.
